According to PubChem BioAssay AID179 (DTP/NCI, 2004):
pEC50, pIC50: −log10 of the molar value. Several values for one entry are separate records, joined by “and”; a condition that tells them apart may be missing. Equal entries are not always repeated. Activity calls are given as the source filed them.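 The calls were made as follows: active = compounds giving half or more protection of infected cells from virus-caused growth loss, again on retest; inactive = the rest.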

System: CEM cells HIV-1 protection, formazan growth assay
Test: NCI AIDS Antiviral Assay
Conditions: for pIC50: measured here: growth of uninfected CEM cells
Method in brief: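 Human CEM cells, uninfected and HIV-1-infected, received five drug concentrations, and growth was read by soluble formazan assay. Compounds giving at least 50% protection were retested; reproducible 100% protection defined confirmed active.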

SMILES	pEC50	pIC50	outcome
O=C1Cn2c(cc(=O)c3ccccc32)O1	< 4.17	< 4.17	
N#Cc1c(N)n(-c2cccc(C(=O)O)c2)c(=O)c2cc([N+](=O)[O-])ccc12	< 3.70	< 3.70	
C[C@@H]1C(=O)c2c(O)cc3c(c2O[C@@H]1C)CCC(C)(C)O3	< 3.70	4.32	
Oc1c(C(O)c2ccccn2)ccc2ccccc12 (stereo not drawn)	< 3.70	4.44	
Nc1nc(Cl)nc2c1ncn2C1CC(O)C(CO)O1 (stereo not drawn)	< 3.20	5.51	
Cc1cc2c(O)c(c1)CN(CC(=O)O)Cc1cc(C)cc(c1O)CN(CC(=O)O)Cc1cc(C)cc(c1O)CN(CC(=O)O)C2	< 3.70	< 3.70	
CC(C)=C(OP1(=S)OCCN1C)C(C)(C)C(=O)N(C)C (stereo not drawn)	< 3.11	3.27	
Nc1nc(N)c(CCCCc2ccccc2)c(N)n1			inactive
Cc1ccc(S(=O)(=O)c2c(N)c3nccn3c3nc4ccccc4nc23)cc1	< 4.59	< 4.59	
Cc1cc(N)c2ccccc2[n+]1CCCCCCCCCC[n+]1c(C)cc(N)c2ccccc21	< 4.61	6.81	
Cc1nc2c(N)ncnc2o1	< 5.02	< 5.02	
Cc1ccc(C)c2c1n1c(=O)n(C)c(=O)n21	< 3.70	< 3.70	
CCc1n[nH]c(=O)n1CCCCCCCCCCCCn1c(CC)n[nH]c1=O	< 3.70	4.38	
c1ccc([P+](CCNCCNCC[P+](c2ccccc2)(c2ccccc2)c2ccccc2)(c2ccccc2)c2ccccc2)cc1	< 3.45	3.63	
CCCCCCCCCCOCC(COCCOCC(COCCCCCCCCCC)OS(=O)(=O)O)OS(=O)(=O)O (stereo not drawn)	< 3.73	4.37	
NC1CC2C3CCC2C1C3=O (stereo not drawn)	< 3.70	< 3.70	
c1cc2c(c(NC3=NCCO3)c1)CCC2	< 3.70	3.95	
COC(=O)N1CC2CC(=O)OCC2[C@@H]1CO (stereo partly drawn)	< 3.14	< 3.14	
C/C(=N/O)c1ccc2c(c1)C(=NO)c1cc(/C(C)=N/O)ccc1-2	< 4.08	4.94	
Fc1ccc(CN2COc3c(ccc4cccnc34)C2)cc1	< 3.70	4.46	
O=C(CSc1cc(-c2ccc(Cl)cc2)s[s+]1)c1ccccc1	< 3.70	4.28	
Cc1ccc(NC(=O)/C(C#N)=C/c2ccccc2)c(C)c1	< 4.61	< 4.61	

SMILES	pEC50	pIC50	outcome
CCN(CC)CCC(=O)c1ccccc1	< 3.06	< 3.70 and 4.57	
CCOC(=O)CC1(c2ccccc2)OC(=O)c2ccccc21 (stereo not drawn)			inactive
O=P1(Oc2ccc(Cl)cc2)OCCS1 (stereo not drawn)	< 3.70	< 3.70	
O=c1oc2c(ccc3c(O)cccc32)c2c1CCCC2	< 3.70	< 3.70	
CCOC(=O)CC[C@H](NC(=O)c1[nH]cnc1/N=N/N(C)C)C(=O)OCC	< 3.17	3.47	
Cc1nc2c(nc1Cl)nc(Oc1ccc(Cl)cc1)c1ccccc12	< 4.55	< 4.55	
Cc1cc(Cl)nc2nc(Cl)c(N)cc12			inactive
Cc1nc2c(n1-c1ccc(Br)cc1)C(=O)c1ccccc1C2=O	< 4.31	5.28	
COc1ccc(-c2cc(NC(=O)c3cnccn3)c(=O)oc2C)cc1	< 3.70	3.77	
S=c1sc2c(Cl)ncnc2n1-c1ccccc1	< 4.17	5.44	
CP1(=S)CC(Cl)=C2CCCCC21 (stereo not drawn)			inactive
COc1cc(COC(=O)NC(Cc2cccs2)C(=O)O)c([N+](=O)[O-])cc1OC (stereo not drawn)	< 3.22	3.37	
C#CC(C)(C)C(/C=N\NC(=O)O[C@H]1CC(C)CCC1C(C)C)CCC(=O)OC (stereo partly drawn)	< 3.70	4.60	
O=C(CO)CC(=O)C(=O)Nc1ccccc1	< 3.82	< 3.82	
O=c1c2ccccc2[se]n1-c1ccc(I)cc1	< 4.96	4.97	
CC(=O)NC1C(OCc2ccccc2)OC(CO)C(O)C1OC(C)C(=O)NC(C)C(=O)NC(CCC(=O)NCCCCNc1c2ccccc2nc2cccc([N+](=O)[O-])c12)C(N)=O (stereo not drawn)	< 3.70	7.20	
O=C1C=C(c2c(O)ccc3ccccc23)c2ccccc2C1=O			inactive
CN=C1CC2c3cc(OC)c(OC)cc3CCN2C2=C1C(=O)CC(C)(C)C2 (stereo not drawn)	< 3.70	< 3.70	
N#CCc1n[nH]c(Cc2ccccc2)n1	< 3.70	< 3.70	
C=C(C)[C@@H]1CC=C2[C@H](O)CC(O)C(C)[C@@]2(C)C1 (stereo partly drawn)	< 3.68	4.29	
O=C(CC(=O)n1nc(-c2ccccc2)c(N=Nc2ccc(Cl)cc2)c1-c1ccccc1)Nc1ccc(Cl)cc1	< 4.74	< 4.74	
Nc1ccn(CC(=O)NCCO)c(=O)n1	< 3.70	< 3.70	

SMILES	pEC50	pIC50	outcome
CSc1nc2c(N)ncnc2n1C	< 3.70	< 3.70	
Nc1cccc(N=Nc2c(S(=O)(=O)O)cc3cc(NC(=O)Nc4ccc5c(O)c(N=Nc6cccc(N)c6)c(S(=O)(=O)O)cc5c4)ccc3c2O)c1	4.87	< 4.00	
O=C1OCC(O)C(C2OC(=O)c3cc(O)c(O)c(O)c3-c3c(O)c(O)c(O)c4c3C(=O)OC2C4c2c(O)cc(O)c3c2OC(c2ccc(O)c(O)c2)C(O)C3)OC(=O)c2cc(O)c(O)c(O)c2-c2c1cc(O)c(O)c2O (stereo not drawn)	< 4.65	< 4.65	
COc1c(O)cc2oc(-c3ccc(O)c(O)c3)cc(=O)c2c1O	< 4.42	4.64	
O=C(N/C=C(/c1ccccc1)S(=O)Cc1ccccc1)Nc1ccccc1Cl (stereo not drawn)	< 3.30	4.76	
CC(C)=CCc1c(-c2ccc(O)cc2O)oc2c3c(cc(O)c2c1=O)OC(C)(C)C=C3	< 4.76	4.86	
CC1=C[C@H]2O[C@@H]3C[C@H]4OC(=O)/C=C\C=C\[C@H]([C@@H](C)O)OC[C@H](O)[C@@]5(C)O[C@@H]5C(=O)OC[C@@]2(C[C@H]1O)[C@]4(C)C31CO1 (stereo partly drawn)	< 5.35	8.24	
CC1(CCCC2(C)CCNC2=O)OCCO1 (stereo not drawn)	< 3.70	< 3.70	
CN(CCO)c1nc2c(c(=O)[nH]1)CNCC2	< 3.54	< 3.54	
Cc1ccc(S(=O)(=O)Nc2nc3ccccc3c(=O)n2C2CCCCC2)cc1	< 3.70	< 3.70	
O=C1/C(=C\c2ccc(Cl)cc2Cl)Sc2scc(-c3cccc([N+](=O)[O-])c3)[n+]21			inactive
N#C/C1=C(\C#N)CCC2(C#N)C3C=CC(O3)C2(C#N)CC1 (stereo not drawn)	< 3.53	4.46	
C/C(O)=C(/C=N/C(=S)Nc1ccccc1)C(=O)Nc1ccccc1C	< 3.70	3.71	
CN(N)c1cc(=O)[nH]c(=O)[nH]1	< 3.70	< 3.70	
CC(C)(C)c1cc(N=NC(=S)NCc2ccccc2)cc(C(C)(C)C)c1O	< 5.15	< 5.15	
Oc1c(Br)ccc2cccnc12	< 4.70	6.10	
CCN1C(c2ccc(Cl)cc2)=NN2C(C)=CC(C)(C)N=C12	< 4.07	4.22	
COc1ccc(C2SCC(=O)N2NC(=O)c2ccc(NC(C)=O)cc2)cc1 (stereo not drawn)	< 4.45	< 4.45	
CC1CN=C(N(C)C(=O)Nc2ccc(Cl)cc2)S1 (stereo not drawn)			inactive
O=C1CCCC1CN1CCCCC1 (stereo not drawn)			inactive
CCCCCCCCCC(=O)OC1CN2CC[C@H](O)C2C(O)[C@@H]1O (stereo partly drawn)			inactive
Cc1cc(N(CCC#N)CCC#N)ccc1N=Nc1cccc(Cl)c1	< 5.11	< 5.11	

SMILES	pEC50	pIC50	outcome
NC(=O)CCC(CCC(N)=O)(CCC(N)=O)[N+](=O)[O-]	< 3.70	< 3.70	
O=c1oc2ccccc2cc1-c1nc2ccccc2c(=O)[nH]1	< 4.00	< 4.00	
O=C(Nc1ccccc1S)c1ccccc1	5.17	4.98	
CCCN(CCCN)/[N+]([O-])=N\O	< 2.05	2.80	
C/C(=N\NC(=S)Nc1ccccc1)[C@H]1C2CCC(C2)C1C/C=C\CCCC(=O)O (stereo partly drawn)	< 3.64	3.97	
COc1ccc2c3ccc4c(c3n(C)c2c1)C(=O)c1ccccc1C4=O	< 5.82	< 5.82	
CC(C)[Si](OC1=C(c2ccccc2)C(NC(=O)/C=C/c2ccc([N+](=O)[O-])cc2)CCC1)(C(C)C)C(C)C (stereo not drawn)	< 3.70	< 3.70	
ClCCCCOC1CCCCO1 (stereo not drawn)			inactive
CC(CO)(CO)N1C(=O)c2cccc3cc([N+](=O)[O-])cc(c23)C1=O	< 3.70	< 3.70	
Cc1cccc(C(C)(C)C)c1NC(=O)/C(Cc1nc2ccc([N+](=O)[O-])cc2[nH]c1=O)=N/NC(=O)C[N+](C)(C)C	< 3.36	4.22	
Cc1ccc(S(=O)(=O)Nn2c(O)c(C#N)c(-c3ccccc3)c(C#N)c2=O)cc1	< 3.70	< 3.70	
S=C(NCCCCCCNC(=S)Nc1c2ccccc2nc2ccccc12)Nc1c2ccccc2nc2ccccc12			inactive
O=C(CCl)N1CCC(CC2(c3cc4ccccc4[nH]3)OCCO2)CC1	< 3.70	5.30	
COC1OC(COCc2ccc(Cl)cc2)C(OCc2ccc(Cl)cc2)C1N=[N+]=[N-] (stereo not drawn)			inactive
CCOC(=O)C(CCC(N)=O)(CCC(=O)OC)C(=O)OCC	< 3.70	< 3.70	
CCCN=C(N)C(C)=O	< 2.71	< 2.71	
Cn1cc(NC(=O)c2nc(NC(=O)c3nc(NC(=O)c4ccc(C(=O)Nc5cn(C)c(C(=O)Nc6cn(C)c(C(=O)Nc7cn(C)c(C(=O)NCCC(=N)N)n7)n6)n5)cc4)cn3C)cn2C)nc1C(=O)NCCC(=N)N	< 4.89	5.63	
Cc1ccc(C=NC23CC4CC(CC(C4)C2)C3)cc1	< 3.59	< 3.59	
Cc1cn(C2CC(F)C(COC(=O)CCCCCCCCCCCBr)O2)c(=O)[nH]c1=O (stereo not drawn)	7.62	4.54	
CC(C)CCCC(C)[C@H]1CCC2C3CCC4C[C@@H](CCCC(c5cc(Cl)c(O)c(C(=O)O)c5)c5cc(Cl)c(O)c(C(=O)O)c5)CC[C@]4(C)C3CC[C@@]21C (stereo partly drawn)	5.05	< 3.70	
O=C(Nc1nc(Cl)nc(Cl)n1)N1CCOCC1	< 3.70	< 3.70	
CN(C)CC/[N+]([O-])=C(/c1ccccc1)C12CC3CC(CC(C3)C1)C2			inactive
